Series [1] concerns the target T1, Aldose reductase (Bos taurus, UniProt P16116).
T1 construct: Aldose reductase was separated and partially purified from bovine lenses; from tissue; host or cells: bovine lens
As to the kind of experiment: Effect on Aldose Reductase (inhibition of enzyme activity, photometric). Type of series: biochemical. The conditions noted are these: 1×10^-5 M, aldose reductase partially purified from bovine lenses; read-out: Percent Inhibition of aldose reductase. On the procedure:
Aldose reductase was separated and partially purified from bovine lenses by the method of Hayman and Kinoshita [J. Biol. Chem., 240, 877 (1965)]. Enzyme activities were photometrically determined by the method of Varma et al. [Biochem, Pharmac., 25, 2505 (1976)].
The inhibition of aldose reductase activity was determined employing each test compound in a concentration of 1×10^-5 M, and the results are as shown in Table 30.
As a control, the known compound, 5-[4-(1-methylcyclohexylmethoxy)benzyl]thiazolidine-2,4-dione ("Cpd. A") was tested by the same method and the result is also shown in Table 30: […]

Series [2] concerns male mice of the ddY strain. As to the kind of experiment: Toxicity (acute oral, one-week observation). It is filed as in vivo. On the procedure:
The test animals used were male mice of the ddY strain. The animals were employed in groups of 3. The animals of each group were administered orally with a single test compound in a dose of 300 mg/kg body weight. The compounds employed were those prepared as described in Examples 3, 4, 5 and 13.

The mark [3] stands for this setting: oral, 300 mg/kg body weight, male ddY mice, groups of 3, 1 week.

On to `CC1(COc2ccc(CC3SC(=O)NC3=O)cc2)CCCCC1` (stereo not drawn) [Cpd. A, 5-[4-(1-methylcyclohexylmethoxy)benzyl]thiazolidine-2,4-dione, reference compound], for which the inhibition at 10 µM in series [1] came to 16.2%. Take `Cc1c(C)c2c(c(C)c1O)/C(=N/O)CC(C)(COc1ccc(CC3SC(=O)NC3=O)cc1)O2` (stereo not drawn) [Example 13, 5-{4-[6-Hydroxy-4-(E)-hydroxyimino-2,5,7,8-tetramethylchroman-2-ylmethoxy]benzyl}thiazolidine-2,4-dione]: in series [2] (mouse, in vivo, po, 300 mg/kg), the “abnormalities attributable to the test compounds during observation” value (shortened to “abnormalities attributable”) is “no abnormalities” and the “survival at the end of the 1 week observation period” value (“survival at the end” below) is listed as “All animals were alive”. Also, in series [1], the inhibition at 10 µM worked out at 55.5%.

Regarding `Cc1c(C)c2c(c(C)c1OCC(=O)O)C(=O)CC(C)(COc1ccc(CC3SC(=O)NC3=O)cc1)O2` (stereo not drawn) [Example 59, α-{2-[4-(2,4-Dioxothiazolidin-5-ylmethyl)-phenoxymethyl]-2,5,7,8-tetramethyl-4-oxochroman-6-yloxy}acetic acid], in series [1], the inhibition at 10 µM is 79.5%. As for `Cc1c(C)c2c(c(C)c1OCC(=O)O)CCC(C)(COc1ccc(CC3SC(=O)NC3=O)cc1)O2` (stereo not drawn) [Example 58, α-{2-[4-(2,4-Dioxothiazolidin-5-ylmethyl)phenoxymethyl]-2,5,7,8-tetramethylchroman-6yloxy}acetic acid], the inhibition at 10 µM in series [1] turned out to be 51.6%. As for `CC(=O)Oc1cc2c(cc1C(C)(C)CC(C)(C)C)OC(C)(COc1ccc(CC3SC(=O)NC3=O)cc1)CC2` (stereo not drawn) [Example 4, 5-[4-(6-Acetoxy-2-methyl-7-(1,1,3,3-tetramethylbutyl)-chroman-2-ylmethoxy)benzyl]thiazolidine-2,4dione], in series [2] (setting [3]), the “abnormalities attributable” value is “no abnormalities” and the “survival at the end” value is on record as “All animals were alive”. For the compound `CC(C)(C)CC(C)(C)c1cc2c(cc1O)CCC(C)(COc1ccc(CC3SC(=O)NC3=O)cc1)O2` (stereo not drawn) [Example 5, 5-{4-[6Hydroxy-2-methyl-7-(1,1,3,3-tetramethylbutyl)-chroman-2-ylmethoxy]benzyl}thiazolidine-2,4-dione], in series [2] (setting [3]), the “abnormalities attributable” value is listed as “no abnormalities” and the “survival at the end” value was “All animals were alive”. `CCCCCCCCC1(COc2ccc(CC3SC(=O)NC3=O)cc2)CCc2c(C)c(O)c(C)c(C)c2O1` (stereo not drawn) [Example 3, 5-[4-(6-Hydroxy-5,7,8-trimethyl-2-octylchroman-2-yl-methoxy)benzyl]thiazolidine-2,4-dione]: in series [2] (setting [3]), the “abnormalities attributable” value is “no abnormalities” and the “survival at the end” value is “All animals were alive”.

Usually inhibition stands for the drop in the measured response relative to a control, in per cent.

(Values after US5104888A, “Thiazolidine derivatives, their preparation and use” (Sankyo Company, Limited, priority 1985, dated 1992).)
